From PMC10141580, “Cyclic Dichalcogenides Extend the Reach of Bioreductive Prodrugs to Harness Thiol/Disulfide Oxidoreductases: Applications to seco-Duocarmycins Targeting the Thioredoxin System” (ACS Central Science, 2023)
Where two headings read alike, the source gives them in different places.

Key:
[1] = system: NCI-60 standardized human tumor cell line panel; experiment: cells; format: cell-based
HeLa-HRE cells = experiment: Resazurin cytotoxicity assay, HeLa-HRE, 48 h; conditions: read-out: IC50(nM): HeLa; HeLa, 48 h
Procedure: We used A549 lung cancer and HeLa cervical cancer cell lines for initial screening of the prodrugs.
HeLa-HRE cells were treated with prodrugs of the
Dose -response curves were calculated from at least 27 incremental single concentrations over a
range of at least three log units.

[2] = cell line A549/ATCC (LC:A549/ATCC), TMI sheet
[3] = cell line BT-549 (BR:BT-549), TMI sheet
[4] = cell line CCRF-CEM (LE:CCRF-CEM), TMI sheet
[5] = cell line COLO 205 (CO:COLO 205), TMI sheet
[6] = cell line EKVX (LC:EKVX), TMI sheet
[7] = cell line HCC-2998 (CO:HCC-2998), TMI sheet
[8] = cell line HCT-15 (CO:HCT-15), TMI sheet
[9] = cell line HCT-116 (CO:HCT-116), TMI sheet
[10] = cell line HL-60(TB) (LE:HL-60(TB)), TMI sheet
[11] = cell line HOP-62 (LC:HOP-62), TMI sheet
[12] = cell line HOP-92 (LC:HOP-92), TMI sheet
[13] = cell line HT29 (CO:HT29), TMI sheet
[14] = cell line K-562 (LE:K-562), TMI sheet
[15] = cell line KM12 (CO:KM12), TMI sheet
[16] = cell line LOX IMVI (ME:LOX IMVI), TMI sheet
[17] = cell line M14 (ME:M14), TMI sheet
[18] = cell line MALME-3M (ME:MALME-3M), TMI sheet
[19] = cell line MCF7 (BR:MCF7), TMI sheet
[20] = cell line MDA-MB-435 (ME:MDA-MB-435), TMI sheet
[21] = cell line MOLT-4 (LE:MOLT-4), TMI sheet
[22] = cell line NCI-H23 (LC:NCI-H23), TMI sheet
[23] = cell line NCI-H226 (LC:NCI-H226), TMI sheet
[24] = cell line RPMI-8226 (LE:RPMI-8226), TMI sheet
[25] = cell line SF-539 (CNS:SF-539), TMI sheet
[26] = cell line SK-MEL-5 (ME:SK-MEL-5), TMI sheet
[27] = cell line SK-MEL-28 (ME:SK-MEL-28), TMI sheet
[28] = cell line SNB-19 (CNS:SNB-19), TMI sheet
[29] = cell line SR (LE:SR), TMI sheet
[30] = cell line SW-620 (CO:SW-620), TMI sheet
[31] = cell line T-47D (BR:T-47D), TMI sheet
[32] = cell line U251 (CNS:U251), TMI sheet
[33] = cell line UACC-62 (ME:UACC-62), TMI sheet
[34] = cell line UACC-257 (ME:UACC-257), TMI sheet

With `COc1cc2cc(C(=O)N3CC(CCl)c4c3cc(OC(=O)N3CCN(C)C5CSSCC53)c3ccccc43)[nH]c2c(OC)c1OC` (mixture of isomers) [Me-SS66C-CBI-TMI] the GI50 ([1]; UACC-62, read-out: GI50) was 150 nM, the GI50 ([1]; UACC-257, read-out: GI50) was 500 nM and the “NCI-60 screening: Log(GI50)” value [1, 2] was -6.74. For the same compound, the “NCI-60 screening: Log(RedIndex)” value [1, 2] was 1.04, the “NCI-60 screening: Log(GI50)” value [1, 3] was -6.78 and the “NCI-60 screening: Log(RedIndex)” value [1, 3] was 0.98. The GI50 ([1]; cell line BT-549 (BR:BT-549), TMI sheet, read-out: NCI-60 screening: Raw GI50) was 170 nM, the “NCI-60 screening: Log(GI50)” value [1, 4] was -6.98 and the “NCI-60 screening: Log(RedIndex)” value [1, 4] was 0.98. For the same compound, the “NCI-60 screening: Log(GI50)” value [1, 5] was -6.48, the “NCI-60 screening: Log(RedIndex)” value [1, 5] was 0.62 and the “NCI-60 screening: Log(GI50)” value [1, 6] was -6.64. The “NCI-60 screening: Log(RedIndex)” value [1, 6] was 0.93, the GI50 ([1]; cell line EKVX (LC:EKVX), TMI sheet, read-out: NCI-60 screening: Raw GI50) was 230 nM and the “NCI-60 screening: Log(GI50)” value [1, 7] was -6.84. For the same compound, the “NCI-60 screening: Log(RedIndex)” value [1, 7] was 1.02, the GI50 ([1]; cell line HCC-2998 (CO:HCC-2998), TMI sheet, read-out: NCI-60 screening: Raw GI50) was 140 nM and the “NCI-60 screening: Log(GI50)” value [1, 8] was -6.61. For the same compound, the “NCI-60 screening: Log(RedIndex)” value [1, 8] was 0.85, the GI50 ([1]; cell line HCT-15 (CO:HCT-15), TMI sheet, read-out: NCI-60 screening: Raw GI50) was 250 nM and the “NCI-60 screening: Log(GI50)” value [1, 9] was -6.73. The “NCI-60 screening: Log(RedIndex)” value [1, 9] was 0.9, the “NCI-60 screening: Log(GI50)” value [1, 10] was -7.28 and the “NCI-60 screening: Log(RedIndex)” value [1, 10] was 1.16. For the same compound, the “NCI-60 screening: Log(GI50)” value [1, 11] was -6.69, the “NCI-60 screening: Log(RedIndex)” value [1, 11] was 0.46 and the GI50 ([1]; cell line HOP-62 (LC:HOP-62), TMI sheet, read-out: NCI-60 screening: Raw GI50) was 200 nM. The “NCI-60 screening: Log(GI50)” value [1, 12] was -6.62, the “NCI-60 screening: Log(RedIndex)” value [1, 12] was 1.02 and the GI50 ([1]; cell line HOP-92 (LC:HOP-92), TMI sheet, read-out: NCI-60 screening: Raw GI50) was 240 nM. For the same compound, the “NCI-60 screening: Log(GI50)” value [1, 13] was -6.65, the “NCI-60 screening: Log(RedIndex)” value [1, 13] was 0.83 and the GI50 ([1]; cell line HT29 (CO:HT29), TMI sheet, read-out: NCI-60 screening: Raw GI50) was 230 nM. For the same compound, the “NCI-60 screening: Log(GI50)” value [1, 14] was -6.4, the “NCI-60 screening: Log(RedIndex)” value [1, 14] was 0.23 and the “NCI-60 screening: Log(GI50)” value [1, 15] was -5.96. The “NCI-60 screening: Log(RedIndex)” value [1, 15] was 0.27, the “NCI-60 screening: Log(GI50)” value [1, 16] was -6.78 and the “NCI-60 screening: Log(RedIndex)” value [1, 16] was 0.82. For the same compound, the GI50 ([1]; cell line LOX IMVI (ME:LOX IMVI), TMI sheet, read-out: NCI-60 screening: Raw GI50) was 170 nM, the “NCI-60 screening: Log(GI50)” value [1, 17] was -6.6 and the “NCI-60 screening: Log(RedIndex)” value [1, 17] was 0.78. For the same compound, the GI50 ([1]; cell line M14 (ME:M14), TMI sheet, read-out: NCI-60 screening: Raw GI50) was 250 nM, the “NCI-60 screening: Log(GI50)” value [1, 18] was -6.67 and the “NCI-60 screening: Log(RedIndex)” value [1, 18] was 0.87. The “NCI-60 screening: Log(GI50)” value [1, 19] was -7.55, the “NCI-60 screening: Log(RedIndex)” value [1, 19] was 1.05 and the GI50 ([1]; cell line MCF7 (BR:MCF7), TMI sheet, read-out: NCI-60 screening: Raw GI50) was 28 nM. For the same compound, the “NCI-60 screening: Log(GI50)” value [1, 20] was -6.08, the “NCI-60 screening: Log(RedIndex)” value [1, 20] was 0.33 and the “NCI-60 screening: Log(GI50)” value [1, 21] was -7.16. The “NCI-60 screening: Log(RedIndex)” value [1, 21] was 0.93, the “NCI-60 screening: Log(GI50)” value [1, 22] was -7.34 and the “NCI-60 screening: Log(RedIndex)” value [1, 22] was 1.02. The “NCI-60 screening: Log(GI50)” value [1, 23] was -5.99, the “NCI-60 screening: Log(RedIndex)” value [1, 23] was 0.15 and the “NCI-60 screening: Log(GI50)” value [1, 24] was -6.79. The “NCI-60 screening: Log(RedIndex)” value [1, 24] was 0.96, the GI50 ([1]; cell line RPMI-8226 (LE:RPMI-8226), TMI sheet, read-out: NCI-60 screening: Raw GI50) was 160 nM and the “NCI-60 screening: Log(GI50)” value ([1]; cell line SF-268 (CNS:SF-268), TMI sheet) was -6.76. The GI50 ([1]; cell line SF-268 (CNS:SF-268), TMI sheet, read-out: NCI-60 screening: Raw GI50) was 170 nM, the “NCI-60 screening: Log(GI50)” value ([1]; cell line SF-295 (CNS:SF-295), TMI sheet) was -6.88 and the GI50 ([1]; cell line SF-295 (CNS:SF-295), TMI sheet, read-out: NCI-60 screening: Raw GI50) was 130 nM. For the same compound, the “NCI-60 screening: Log(GI50)” value [1, 25] was -6.76, the “NCI-60 screening: Log(RedIndex)” value [1, 25] was 0.88 and the GI50 ([1]; cell line SF-539 (CNS:SF-539), TMI sheet, read-out: NCI-60 screening: Raw GI50) was 170 nM. For the same compound, the “NCI-60 screening: Log(GI50)” value [1, 26] was -6.78, the “NCI-60 screening: Log(RedIndex)” value [1, 26] was 0.99 and the GI50 ([1]; cell line SK-MEL-5 (ME:SK-MEL-5), TMI sheet, read-out: NCI-60 screening: Raw GI50) was 170 nM. The “NCI-60 screening: Log(GI50)” value [1, 27] was -6.58, the “NCI-60 screening: Log(RedIndex)” value [1, 27] was 1.14 and the GI50 ([1]; cell line SK-MEL-28 (ME:SK-MEL-28), TMI sheet, read-out: NCI-60 screening: Raw GI50) was 260 nM. The “NCI-60 screening: Log(GI50)” value [1, 28] was -6.65, the “NCI-60 screening: Log(RedIndex)” value [1, 28] was 1 and the “NCI-60 screening: Log(GI50)” value [1, 29] was -7.43. For the same compound, the “NCI-60 screening: Log(RedIndex)” value [1, 29] was 0.87, the “NCI-60 screening: Log(GI50)” value [1, 30] was -6.58 and the “NCI-60 screening: Log(RedIndex)” value [1, 30] was 0.85. The GI50 ([1]; cell line SW-620 (CO:SW-620), TMI sheet, read-out: NCI-60 screening: Raw GI50) was 260 nM, the “NCI-60 screening: Log(GI50)” value [1, 31] was -6.54 and the “NCI-60 screening: Log(RedIndex)” value [1, 31] was 0.82. For the same compound, the “NCI-60 screening: Log(GI50)” value [1, 32] was -6.86, the “NCI-60 screening: Log(RedIndex)” value [1, 32] was 1.04 and the GI50 ([1]; cell line U251 (CNS:U251), TMI sheet, read-out: NCI-60 screening: Raw GI50) was 140 nM. The “NCI-60 screening: Log(GI50)” value [1, 33] was -6.83, the “NCI-60 screening: Log(RedIndex)” value [1, 33] was 1.02 and the GI50 ([1]; cell line UACC-62 (ME:UACC-62), TMI sheet, read-out: NCI-60 screening: Raw GI50) was 150 nM. For the same compound, the “NCI-60 screening: Log(GI50)” value [1, 34] was -6.3, the “NCI-60 screening: Log(RedIndex)” value [1, 34] was 0.6 and the mean reductive index ([1]; mean over NCI cell lines, vs P-CC60) was “ca. 7”. The GI50 ([1]; read-out: NCI-60 screening: Raw GI50) was 240 nM and the IC50 (HeLa-HRE cells) was 220 nM.
